{"source": "paper PMC4926125", "about": "“Evaluation of the Toxicity and Toxicokinetics of Cereulide from an Emetic Bacillus cereus Strain of Milk Origin” (Toxins, 2016)", "key": {"[1]": {"experiment": "Toxicokinetics of cereulide in rabbits after a single intravenous injection (plasma, UPLC-MS/MS)", "format": "in vivo, New Zealand White rabbits", "details": "for MRT / Tmax: rabbit; for MRT: read-out: MRTlast, mean retention time until the last time point; for Tmax: read-out: Tmax, time to peak concentration", "description": "A total number of eight rabbits (half female and half male) were used to evaluate the toxicokinetics of cereulide after a single administration of 5 μg cereulide. All plasma samples at different time points were collected, and the concentrations of cereulide were quantified by UPLC-MS/MS assay. The dynamic curve of cereulide in the plasma of rabbits is shown in Figure 3a, and toxicokinetic parameters were calculated using a non-compartmental model as shown in Table 1. […] The concentration of cereulide dropped down until 1 h and rose thereafter. Following a short stationary phase from 4 h to 8 h, the concentration of cereulide decreased gradually. No cereulide could be detected 32 h later. Additionally, no cereulide was detected in the rabbits treated by 0.9% saline-methanol (10:90, v/v) based on our established UPLC-MS/MS method.\n(§1) This animal study was approved by the Institutional Animal Care and Use Committee at the China Agricultural University (SYXK (2012-0037), 28 December 2012), and all the operations were conducted according to the biosafety procedures. Eight adult New Zealand White rabbits (four female and four male) with weights of 2.0 ± 0.3 kg were used in this study. A single intravenous dose of 5 μg cereulide dissolved in 0.9% saline-methanol (10:90, v/v; the amount of methanol injected to rabbit was about 1.8 g/kg body weight) was administrated. Two other rabbits (one female and one male) were treated by 0.9% saline-methanol (10:90, v/v) as control. Blood samples were collected after injection at different time points 0, 0.2, 0.5, 1, 2, 3, 4, 5, 6, 8, 10, 12, 16, 20, 24, 28, 32 h. All samples were centrifuged at 4 °C, 2000 g for 10 min. Plasma from each sample was collected and stored at −80 °C.\nThe plasma samples were thawed to room temperature before analysis. Then 200 μL of each sample was spiked with 10 ng/mL valinomycin (Sigma-Aldrich, St. Louis, MO, USA) as internal standards in a 1.5 mL tube (Axygen, Union City, CA, USA). The extraction steps were as below. First 1 mL acetonitrile (Fisher Scientific, Waltham, PA, USA) was added to each sample and vortexed for 3 min. After centrifugation at 13,000 g for 10 min, the supernatants were transferred into new tubes. The extraction steps were repeated once and the supernatants were combined. The supernatants were evaporated under a flow of nitrogen gas at 50 °C. The dry samples were reconstituted with 500 μL methanol and water with the ratio of 9:1 (v/v), vortexed for 3 min and filtered through 0.22 μm filter membrane (PALL, Port Washington, NY, USA) before UPLC-MS/MS analysis.\nThe presence of cereulide was confirmed in all extracts and quantified by UPLC-MS/MS as described before. UPLC-MS/MS (Waters, Milford, MA, USA) equipped with a RP C18 column (50 mm × 2.1 mm, 1.7 μm, Acquity UPLC, Milford, MA, USA) was used. A gradient program was applied with the mobile phase consisting of solvent A (0.1% formic acid (Dikma, Lake Forest, CA, USA) in water) and solvent B (0.1% formic acid in acetonitrile) as follows: 98%–10% A (0–1 min), 10%–0% A (1–3 min), 0%–98% A (3–5 min). The flow rate was set at 0.3 mL/min with the injection volume of 10 μL. A positive electrospray ionization (ESI^+) mode was chosen to analyze the transitions of m/z 1170.9 → 1125.9 for cereulide and m/z 1128.8 → 1084.3 for valinomycin, by multiple reaction monitoring (MRM) method. The cone voltages for cereulide and valinomycin were 10 V and 60 V, and collision energy were 20 eV and 37 eV, respectively. All data were acquired and processed by software Masslynx 4.1 (Waters, Milford, MA, USA, 2005). The toxicokinetic parameters of cereulide were analyzed by the commercial pharmacokinetic program Phoenix WinNonlin 5.2.1 (Certara, Princeton, NJ, USA)."}, "[2]": {"tested_on": "aspartate aminotransferase (AST) in plasma", "experiment": "Liver damage in rabbits evaluated by plasma AST concentration (indirect EIA)", "format": "in vivo, New Zealand White rabbits", "details": "mean ± SD, n = 8, control range 15.0 to 30.0 ng/mL", "description": "Liver damage in rabbits triggered by cereulide was evaluated by the concentration of aspartate aminotransferase (AST) in plasma. […] Liver function recovered, with the concentration of AST returning to the normal level 32 h after administration. In addition, the concentrations of AST in female rabbits were higher than those in males (Figure 3c), especially at the time point of 0.5 h (P = 0.0345).\nas §1, with “Blood samples were collected after injection at different time points 0, 0.2, 0.5, 1, 2, 3, 4, 5, 6, 8, 10, 12, 16, 20, 24, 28, 32 h. All samples were centrifuged at 4 °C, 2000 g for 10 min. Plasma from each sample was collected and stored at −80 °C.” left out\nPlasma samples at time points of 0.5, 6, 12, 24 and 32 h were evaluated concentrations of AST by indirect EIA according to the instruction (Beyotime Biotechnology, Beijing, China). […] Subsequently, the substrate was added with the absorbance at 450 nm."}, "[3]": {"details": "still active after heat treatment in food processing and passing through the intestinal tract; cited from earlier work", "excerpt": "B. cereus can be found in most common food matrices such as rice, pasta and dairy products, and it represents more than 68.0% of foodborne outbreaks in all food types. There is an increasing occurrence of B. cereus foodborne outbreaks. For example, B. cereus was responsible for 13.4% of bacterial foodborne outbreaks, ranking as the second among the most frequent bacterial causes of foodborne disease in Chinese inland provinces. In fact, the number of B. cereus contaminations is highly underestimated, because foodborne B. cereus disease is mild and self-limiting and is consequently ..."}, "[4]": {"details": "both sexes, New Zealand White, plasma, iv, 5 ug, single i.v. 5 μg cereulide/rabbit, plasma, UPLC-MS/MS, non-compartmental, n = 8, mean ± SD"}, "[5]": {"details": "both sexes, New Zealand White, plasma, iv, 5 ug, single i.v. 5 μg cereulide/rabbit, plasma, UPLC-MS/MS, non-compartmental, n = 8, median"}, "[6]": {"details": "single i.v. 5 μg cereulide/rabbit, plasma, UPLC-MS/MS (LOQ 1.5 ng/mL)"}, "[7]": {"details": "single i.v. 5 μg cereulide/rabbit, plasma, UPLC-MS/MS, non-compartmental, n = 8, median"}, "[8]": {"details": "single i.v. 5 μg cereulide/rabbit, plasma, UPLC-MS/MS, non-compartmental, n = 8, range"}}, "note": "Where two headings read alike, the source gives them in different places.", "data": [{"compound": "CC(C)C[C@H]1OC(=O)[C@H](C(C)C)NC(=O)[C@H](C(C)C)OC(=O)[C@@H](C)NC(=O)[C@@H](CC(C)C)OC(=O)[C@H](C(C)C)NC(=O)[C@H](C(C)C)OC(=O)[C@@H](C)NC(=O)[C@@H](CC(C)C)OC(=O)[C@H](C(C)C)NC(=O)[C@H](C(C)C)OC(=O)[C@@H](C)NC1=O", "note": "[cereulide]", "values": [{"measurement": "AUC(0-t)", "setting": "[1]; both sexes, New Zealand White, iv, 5 ug, single i.v. 5 μg cereulide/rabbit, plasma, UPLC-MS/MS, non-compartmental, n = 8, mean ± SD, read-out: AUC, area under the curve for the plasma concentration until the last time point", "result": "321 ± 240", "unit": "ng·h/mL"}, {"measurement": "AUC(0-inf)", "setting": "[1]; both sexes, New Zealand White, iv, 5 ug, single i.v. 5 μg cereulide/rabbit, plasma, UPLC-MS/MS, non-compartmental, n = 8, mean ± SD, read-out: AUC∞, area under the curve until infinity", "result": "390 ± 258", "unit": "ng·h/mL"}, {"measurement": "clearance", "setting": "[1]; both sexes, New Zealand White, iv, 5 ug, single i.v. 5 μg cereulide/rabbit, plasma, UPLC-MS/MS, non-compartmental, n = 8, mean ± SD, read-out: Cl, clearance (converted)", "result": 0.318, "unit": "mL/min"}, {"measurement": "Cmax", "setting": "[1]; both sexes, New Zealand White, iv, 5 ug, single i.v. 5 μg cereulide/rabbit, plasma, UPLC-MS/MS, non-compartmental, n = 8, mean ± SD, read-out: Cmax, maximum concentration after intravenous administration", "result": "40.8 ± 21.6", "unit": "ng/mL"}, {"measurement": "half-life", "setting": "[1]; both sexes, New Zealand White, iv, 5 ug, single i.v. 5 μg cereulide/rabbit, plasma, UPLC-MS/MS, non-compartmental, n = 8, mean ± SD, read-out: HL_Lambda_z, elimination half-life (converted)", "result": "10.8 ± 9.1", "unit": "h"}, {"measurement": "Vd", "setting": "[1]; both sexes, New Zealand White, iv, 5 ug, single i.v. 5 μg cereulide/rabbit, plasma, UPLC-MS/MS, non-compartmental, n = 8, mean ± SD, read-out: Vd, volume of distribution", "result": "0.32 ± 0.4", "unit": "L"}, {"measurement": "MRT", "setting": "[1]; [4]", "result": "9.6 ± 2.9", "unit": "h"}, {"measurement": "Tmax", "setting": "[1]; [4]", "result": "2.6 ± 3.4", "unit": "h"}, {"measurement": "MRT", "setting": "[1]; [5]", "result": 10.6, "unit": "h"}, {"measurement": "Tmax", "setting": "[1]; [5]", "result": 0.2, "unit": "h"}, {"measurement": "AUC, area under the curve for the plasma concentration until the last time point", "setting": "[1]; single i.v. 5 μg cereulide/rabbit (ear vein), plasma 0-32 h, UPLC-MS/MS, non-compartmental model (WinNonlin), n = 8, median", "result": 309.3, "unit": "ng·h/mL"}, {"measurement": "time after which no cereulide could be detected in plasma", "setting": "[1]; [6]", "result": 32, "unit": "h"}, {"measurement": "time at which cereulide was detected in plasma after injection", "setting": "[1]; [6]", "result": "≤ 0.2", "unit": "h"}, {"measurement": "Lambda_z, elimination rate constant", "setting": "[1]; single i.v. 5 μg cereulide/rabbit, plasma, UPLC-MS/MS, non-compartmental, n = 8, mean ± SD", "result": "0.1 ± 0.1", "unit": "h⁻¹"}, {"measurement": "AUC∞, area under the curve until infinity", "setting": "[1]; [7]", "result": 330.5, "unit": "ng·h/mL"}, {"measurement": "Cl, clearance", "setting": "[1]; [7]", "result": 15.5, "unit": "mL/h"}, {"measurement": "Cmax, maximum concentration after intravenous administration", "setting": "[1]; [7]", "result": 33.8, "unit": "ng/mL"}, {"measurement": "HL_Lambda_z, elimination half-life", "setting": "[1]; [7]", "result": 6.9, "unit": "h"}, {"measurement": "Lambda_z, elimination rate constant", "setting": "[1]; [7]", "result": 0.1, "unit": "h⁻¹"}, {"measurement": "Vd, volume of distribution", "setting": "[1]; [7]", "result": 208.1, "unit": "mL"}, {"measurement": "AUC, area under the curve for the plasma concentration until the last time point", "setting": "[1]; [8]", "result": "81.2 to 851.1", "unit": "ng·h/mL"}, {"measurement": "AUC∞, area under the curve until infinity", "setting": "[1]; [8]", "result": "126.0 to 853.9", "unit": "ng·h/mL"}, {"measurement": "Cl, clearance", "setting": "[1]; [8]", "result": "5.9 to 39.7", "unit": "mL/h"}, {"measurement": "Cmax, maximum concentration after intravenous administration", "setting": "[1]; [8]", "result": "13.3 to 78.1", "unit": "ng/mL"}, {"measurement": "HL_Lambda_z, elimination half-life", "setting": "[1]; [8]", "result": "1.9 to 24.5", "unit": "h"}, {"measurement": "Lambda_z, elimination rate constant", "setting": "[1]; [8]", "result": "0.03 to 0.4", "unit": "h⁻¹"}, {"measurement": "MRTlast, mean retention time until the last time point", "setting": "[1]; [8]", "result": "4.5 to 13.4", "unit": "h"}, {"measurement": "Tmax, time to peak concentration", "setting": "[1]; [8]", "result": "0.2 to 8.0", "unit": "h"}, {"measurement": "Vd, volume of distribution", "setting": "[1]; [8]", "result": "16.3 to 1254.5", "unit": "mL"}, {"measurement": "AST concentration in plasma", "setting": "[2]; 0.5 h after single i.v. 5 μg cereulide", "result": "99.1 ± 32.2", "unit": "ng/mL"}, {"measurement": "AST concentration in plasma", "setting": "[2]; 12 h after single i.v. 5 μg cereulide", "result": "97.3 ± 55.3", "unit": "ng/mL"}, {"measurement": "stability to heat and proteolysis", "setting": "[3]", "result": "heat-stable, proteolytically resistant"}]}]}
